By IC50 is commonly meant the midpoint of a concentration-inhibition curve.

Test [1] concerns the target T1, recombinant BACE2 protein (Homo sapiens, UniProt Q9Y5Z0).
T1 construct: recombinant BACE2 protein in a final concentration of 0.4 μg/mL
T1 sequence (Q9Y5Z0 63-518): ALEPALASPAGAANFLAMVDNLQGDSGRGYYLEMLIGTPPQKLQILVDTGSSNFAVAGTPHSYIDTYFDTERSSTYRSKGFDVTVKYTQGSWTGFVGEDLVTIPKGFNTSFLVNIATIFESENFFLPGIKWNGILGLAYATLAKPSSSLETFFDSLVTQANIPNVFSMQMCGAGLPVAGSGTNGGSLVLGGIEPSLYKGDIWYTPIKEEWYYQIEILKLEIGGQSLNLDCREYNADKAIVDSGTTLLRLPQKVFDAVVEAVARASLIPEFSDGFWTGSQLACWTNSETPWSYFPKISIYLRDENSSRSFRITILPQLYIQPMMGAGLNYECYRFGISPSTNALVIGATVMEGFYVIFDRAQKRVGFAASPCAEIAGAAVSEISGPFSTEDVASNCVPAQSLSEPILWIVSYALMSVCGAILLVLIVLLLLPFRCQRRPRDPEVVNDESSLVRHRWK
Put plainly: BACE2 biochemical FRET based assay. Conditions: pH 5.0, 450 min at room temperature. From the text:
This assay is a Fluorescence Resonance Energy Transfer Assay (FRET) based assay. The substrate for this assay contains the ‘Swedish’ Lys-Met/Asn-Leu mutation of the amyloid precursor protein (APP) beta-secretase cleavage site. This substrate also contains two fluorophores: (7-methoxycoumarin-4-yl) acetic acid (Mca) is a fluorescent donor with excitation wavelength at 320 nm and emission at 405 nm and 2,4-dinitrophenol (Dnp) is a proprietary quencher acceptor. […] Upon cleavage by the beta-secretase, the fluorophore Mca is separated from the quenching group Dnp, restoring the full fluorescence yield of the donor. The increase in fluorescence is linearly related to the rate of proteolysis.
Briefly in a 384-well format recombinant BACE2 protein in a final concentration of 0.4 μg/mL was incubated for 450 minutes at room temperature with 10 μM substrate in incubation buffer (final concentrations: 33.3 mM Citrate buffer pH 5.0, 0.033% PEG, 2% DMSO) in the absence or presence of compound. Next the amount of proteolysis was directly measured by fluorescence measurement at T=0 and T=450 (excitation at 320 nm and emission at 405 nm). Results were expressed in RFU (Relative Fluorescence Units), as difference between T450 and T0.
A best-fit curve was fitted by a minimum sum of squares method to the plot of % Controlmin versus compound concentration. From this an IC50 value (inhibitory concentration causing 50% inhibition of activity) can be obtained.

Test [2] concerns Abeta 1-42 in cerebrospinal fluid (CSF). Put plainly: Pharmacology in the beagle dog: beta-amyloid profile in cerebrospinal fluid. Format: in vivo. Conditions: single dose 0.63 mg/kg. As for the experimental part:
Test compounds were tested to evaluate the effect on the beta-amyloid profile in cerebrospinal fluid (CSF) of dogs after a single dose, in combination with pharmacokinetic (PK) follow up and limited safety evaluation.
In the case of compounds shown below, two or 4 beagle dogs (1 or 2 male, 1 or 2 female) were dosed with vehicle (1 mL/kg of an aqueous solution of 20% cyclodextrin) and 4 beagle dogs (2 males and 2 females) per dose group were dosed with test compound at the doses indicated in the following Table in an aqueous 20% cyclodextrin solution with a concentration in mg/mL identical to the dose given in mg/kg) on an empty stomach.
CSF was taken in conscious animals directly from the lateral ventricle via a cannula which was screwed in the skull and covered with subcutaneous tissue and skin, before and at 4, 8, 25 and 49 hours after dosing. Eight hours after dosing the animals got access to their regular meal for 30 minutes. Blood was taken for PK follow up (0.5, 1, 2, 4, 8, 25 and 49 hours) and serum samples for biochemistry were taken before and at 8 and 25 h after dosing. The CSF samples were used for measurement of Abeta 1-37, Abeta 1-38, Abeta 1-40 and Abeta 1-42.

With `C[C@@H]1OC[C@H]2[C@@H]1OC(N)=N[C@]2(CF)c1cc(NC(=O)c2cnc(OCF)cn2)ccc1F` [Compound I-082], the IC50 in test [1] was 309 nM. Moreover, the entries for the “% change in Abeta 1-42 from own baseline” value in test [2] (8 h) and in test [2] (24 h or 25 h) were −58% and −41%, respectively.
Turning to `NC1=N[C@](CF)(c2cc(NC(=O)c3cnc(OCF)cn3)ccc2F)[C@H]2[C@H](CC(F)F)OC[C@H]2O1` [Compound I-116], the IC50 in test [1] is 389 nM.

The record behind these values is US20210261569A1, “FUSED HETEROCYCLIC DERIVATIVES HAVING SELECTIVE BACE1 INHIBITORY ACTIVITY” (Shionogi & Co., Ltd., priority 2018, published 2021).
